Values after ≈ are worked out from the molar mass of the structure shown. “Also recorded” adds a separate entry of the source. Where two headings read alike, the source gives them in different places.
Experiments:
[1] = tested on: immortalized human endometriotic epithelial cells (iHEEC); test: Phosphorylation of JNK and Jun in iHEEC; assay type: cell-based
Description: FIG. 26A depicts the effects of CDD-2728 and CDD-3013 on phosphorylation of the JNK enzyme itself (i.e., representing MEK4 inhibition) and phosphorylation of pSer63 and pSer73 on the transcription factor Jun in immortalized human endometriotic epithelial cells (iHEEC). The HEEC cells are a well characterized cell line that are relevant for the evaluation of inflammatory endpoints and measures of epithelial-to-mesenchymal transitions (EMT). […] This is consistent with the potency relationships of CDD-2728 relative to bentamapimod observed in cytokine gene expression described above in iHEEC cells and primary human stromal endometriotic cells. […] SP600125 has been frequently described as a poorly-selective JNK-I but in this context provides additional confirmation of inhibition of the JNK target kinase for CDD-2728. […] This adds further support to the critical role of JNK-1 to the therapeutic effect of the JNK inhibitors of the disclosure.

hVPS34 = target: T1, hVPS34 (Homo sapiens, UniProt Q8NEB9); test: ThermoFisher SelectScreen, hVPS34; assay type: binding; conditions: Table 4
T1 construct: purchased ThermoFisher (SelectScreen, outsourced service)
Description: (§1) To mitigate violation of the linear initial velocity principle, which is a problem in end-point assays when doing dose-responses, the enzyme concentration was carefully optimized, in a total assay volume of 25 μL. The assay was performed using 10 μM ATP, 0.02% Tween-20, kinase buffer from Cell Signaling (#9802) in white 384-well plates. The kinase reaction was done for 30 or 60 min at 30° C., and detection of leftover ATP was measured according to Promega's protocol. […] Fractional activities were obtained from normalized data. Non-linear regression (GraphPad Prism7) and a modified Morrison equation for tight binding was used to determine apparent Ki values for inhibitors, assuming no particular mode of inhibition. An orthogonal binding assay (LanthaScreen) was outsourced to ThermoFisher Scientific's SelectScreen Services to determine IC50 values.
(§2) One of the earliest compounds to be synthesized with favorable enzymatic activity towards JNK1 and JNK3 was CDD-2346. A KINOMEscan was performed for CDD-2346 to establish whether the selectivity of this chemical scaffold was suitable or required optimization. […] To confirm that the activity against each kinase was a true result and not a false positive, CDD-2346 was evaluated in kinase assays using ThermoFisher SelectScreen platform. The results from these assays are provided herein (Table 4). The important innovative steps described are the optimization of selectivity a) for JNK isoforms; b) for kinases considered “in-pathway”; and c) to avoid kinases considered “out-of-pathway”.

JNK1 [2] = target: T2, JNK1 (Homo sapiens, UniProt P45983); test: JNK1 kinase (intrinsic ATPase, Kinase-Glo) assay; assay type: biochemical
In short: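 Full-length construct not stated; kinases hydrolyse ATP without peptide substrate, reaction run 30 or 60 min at 30° C, remaining ATP read by Kinase-Glo luminescence with no-kinase controls. Apparent Ki from normalized fractional activities fitted to modified Morrison tight-binding equation; orthogonal LanthaScreen binding assay gave IC50.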

JNK3 [3] = target: T3, JNK3 (Homo sapiens, UniProt P53779); test: ThermoFisher SelectScreen, JNK3; assay type: binding
MEK4 = target: T4, MEK4 (Homo sapiens, UniProt P45985); test: ThermoFisher SelectScreen, MEK4; assay type: binding
T4 construct: purchased ThermoFisher (SelectScreen)
T4 sequence (P45985 1-399): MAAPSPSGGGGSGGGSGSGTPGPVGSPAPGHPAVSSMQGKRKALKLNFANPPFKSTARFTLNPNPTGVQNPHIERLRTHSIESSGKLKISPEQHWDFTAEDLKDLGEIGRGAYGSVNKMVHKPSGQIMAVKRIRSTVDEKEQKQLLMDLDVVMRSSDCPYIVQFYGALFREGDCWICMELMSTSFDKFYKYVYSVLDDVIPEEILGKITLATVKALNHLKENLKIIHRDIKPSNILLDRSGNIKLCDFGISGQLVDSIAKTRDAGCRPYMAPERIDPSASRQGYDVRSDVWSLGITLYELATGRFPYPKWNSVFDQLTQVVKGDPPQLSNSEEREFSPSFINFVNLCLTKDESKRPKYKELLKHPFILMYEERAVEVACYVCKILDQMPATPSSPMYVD

[4] = In vitro metabolism in human liver microsomes; conditions: human, microsomes
Description: (§3) The target product profile seeks to deliver JNK inhibitor as a once daily oral administration. To prioritize compounds for further development, in vitro metabolism of several CDD JNK inhibitors were determined to approximate the plasma half-life and the rate of metabolism of the compounds in vivo.

CSNK1D = target: T5, CSNK1D (Homo sapiens, UniProt P48730); test: ThermoFisher SelectScreen, CSNK1D; assay type: binding
T5 construct: purchased ThermoFisher (SelectScreen)

CLK2 = target: T6, CLK2 (Homo sapiens, UniProt P49760); test: ThermoFisher SelectScreen, CLK2; assay type: binding
T6 construct: purchased ThermoFisher (SelectScreen)

JNK3 [5] = target: T3, JNK3; test: JNK3 kinase (intrinsic ATPase, Kinase-Glo) assay; assay type: biochemical
CSNK1G1 = target: T7, CSNK1G1 (Homo sapiens, UniProt Q9HCP0); test: ThermoFisher SelectScreen, CSNK1G1; assay type: binding; conditions: Table 4
T7 construct: purchased ThermoFisher (SelectScreen)
Description: as §1, §2
No activity of CDD-2728 was detected for Atypical, Mutant, or Lipid kinases. To confirm CDD-2728 inhibition results in the KINOMEscan analysis, individual binding assays were performed on the kinases to which CDD-2728 bound using ThermoFisher SelectScreen.

JNK2 [6] = target: T8, JNK2 (Homo sapiens, UniProt P45984); test: JNK2 kinase (intrinsic ATPase, Kinase-Glo) assay; assay type: biochemical
[7] = In vitro metabolism in mouse liver microsomes; conditions: mouse, microsomes
Description: as §3

JNK1 [8] = target: T2, JNK1; test: Promega NanoBRET intracellular target engagement (tracer K10 displacement), JNK1; assay type: cell-based
JNK2 [9] = target: T8, JNK2; test: Promega NanoBRET intracellular target engagement (tracer K10 displacement), JNK2; assay type: cell-based
JNK3 [10] = target: T3, JNK3; test: Promega NanoBRET intracellular target engagement (tracer K10 displacement), JNK3; assay type: cell-based
HepG2 cells = test: HepG2 cell viability (ATP consumption); conditions: CDD-2575 25 μM; CDD-2728, CDD-2624 up to 75
Description: This assay reflects cell viability. […] To determine if the responses observed in endometriotic epithelial cells and endometriotic stromal cell cultures were cytotoxic, cell viability was performed in HepG2 cells.

CSNK1E = target: T9, CSNK1E (Homo sapiens, UniProt P49674); test: ThermoFisher SelectScreen, CSNK1E; assay type: binding
T9 construct: purchased ThermoFisher (SelectScreen)

MEK5 = target: T10, MEK5 (Homo sapiens, UniProt Q13163); test: ThermoFisher SelectScreen, MEK5; assay type: binding; conditions: Table 4
T10 construct: purchased ThermoFisher (SelectScreen, outsourced service)
T10 sequence (Q13163 1-448): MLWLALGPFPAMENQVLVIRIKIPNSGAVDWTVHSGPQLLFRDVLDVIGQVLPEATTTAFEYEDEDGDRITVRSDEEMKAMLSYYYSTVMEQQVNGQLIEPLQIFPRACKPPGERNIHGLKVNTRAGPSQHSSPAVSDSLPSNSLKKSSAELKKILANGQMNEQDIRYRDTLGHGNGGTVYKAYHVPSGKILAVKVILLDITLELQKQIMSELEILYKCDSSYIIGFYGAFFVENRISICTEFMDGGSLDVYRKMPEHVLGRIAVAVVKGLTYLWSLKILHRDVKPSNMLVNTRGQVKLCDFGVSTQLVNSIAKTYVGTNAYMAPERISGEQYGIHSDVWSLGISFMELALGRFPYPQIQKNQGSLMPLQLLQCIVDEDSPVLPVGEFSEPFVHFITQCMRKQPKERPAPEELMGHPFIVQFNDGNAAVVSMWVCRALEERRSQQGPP
Description: as §1, §2

JNK1 [11] = target: T2, JNK1; test: JNK1 biochemical assay (piperazine series); conditions: enantiomer comparison
Description: FIG. 21B depicts concentration-dependent inhibition of JNK1 with CDD-1722 and CDD-1723. Components of CDD-1722 and CD-1723 represent alternative building blocks which may be incorporated during optimization of pharmaceutical properties of JNK-I.

T1 sequence (Q8NEB9 whole entry): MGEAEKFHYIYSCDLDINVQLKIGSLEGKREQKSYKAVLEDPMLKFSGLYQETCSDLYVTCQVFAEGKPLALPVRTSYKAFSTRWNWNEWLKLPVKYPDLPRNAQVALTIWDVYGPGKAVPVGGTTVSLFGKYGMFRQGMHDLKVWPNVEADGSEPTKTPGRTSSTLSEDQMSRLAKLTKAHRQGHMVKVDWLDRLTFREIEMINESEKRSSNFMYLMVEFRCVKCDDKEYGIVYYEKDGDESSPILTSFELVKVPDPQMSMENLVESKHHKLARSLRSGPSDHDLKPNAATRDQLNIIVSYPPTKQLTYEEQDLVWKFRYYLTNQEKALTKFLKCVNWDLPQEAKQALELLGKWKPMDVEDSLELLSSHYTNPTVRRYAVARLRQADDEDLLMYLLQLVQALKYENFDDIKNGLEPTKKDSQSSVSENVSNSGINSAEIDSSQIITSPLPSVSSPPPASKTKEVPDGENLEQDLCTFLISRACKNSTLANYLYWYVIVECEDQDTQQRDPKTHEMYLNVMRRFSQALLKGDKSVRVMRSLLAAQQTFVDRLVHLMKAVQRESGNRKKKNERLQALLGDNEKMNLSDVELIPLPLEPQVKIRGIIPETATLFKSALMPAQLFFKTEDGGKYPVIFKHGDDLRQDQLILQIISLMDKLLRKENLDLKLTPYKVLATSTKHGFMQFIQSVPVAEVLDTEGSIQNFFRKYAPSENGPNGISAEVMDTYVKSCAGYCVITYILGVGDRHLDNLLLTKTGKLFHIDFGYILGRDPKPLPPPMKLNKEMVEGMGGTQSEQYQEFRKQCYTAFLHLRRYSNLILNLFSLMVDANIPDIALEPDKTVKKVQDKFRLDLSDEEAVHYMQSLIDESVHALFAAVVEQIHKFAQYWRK
T8 sequence (P45984 whole entry): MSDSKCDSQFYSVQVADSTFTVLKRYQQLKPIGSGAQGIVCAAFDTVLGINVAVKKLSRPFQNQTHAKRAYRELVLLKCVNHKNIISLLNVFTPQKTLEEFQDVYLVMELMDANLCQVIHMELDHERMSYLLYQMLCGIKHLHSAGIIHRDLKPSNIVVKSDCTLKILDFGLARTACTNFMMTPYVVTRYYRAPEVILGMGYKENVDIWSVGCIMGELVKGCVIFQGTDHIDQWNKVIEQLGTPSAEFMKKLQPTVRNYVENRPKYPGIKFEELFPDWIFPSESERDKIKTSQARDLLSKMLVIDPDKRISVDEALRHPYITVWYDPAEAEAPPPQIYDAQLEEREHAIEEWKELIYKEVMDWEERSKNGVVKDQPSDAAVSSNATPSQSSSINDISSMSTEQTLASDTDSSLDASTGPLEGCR
T3 sequence (P53779 whole entry): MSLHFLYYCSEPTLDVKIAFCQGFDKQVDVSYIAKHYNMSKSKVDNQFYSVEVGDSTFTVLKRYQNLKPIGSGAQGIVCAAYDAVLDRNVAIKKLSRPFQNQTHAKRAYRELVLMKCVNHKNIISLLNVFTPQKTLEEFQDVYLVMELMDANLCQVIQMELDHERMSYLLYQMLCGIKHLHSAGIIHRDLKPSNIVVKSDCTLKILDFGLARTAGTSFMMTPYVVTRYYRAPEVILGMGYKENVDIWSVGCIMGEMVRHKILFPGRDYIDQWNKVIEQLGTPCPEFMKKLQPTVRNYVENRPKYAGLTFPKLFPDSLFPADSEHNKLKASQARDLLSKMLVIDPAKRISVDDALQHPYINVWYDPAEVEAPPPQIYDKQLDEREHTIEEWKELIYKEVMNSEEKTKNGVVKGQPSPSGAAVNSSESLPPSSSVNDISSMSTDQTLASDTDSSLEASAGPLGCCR
T2 sequence (P45983 whole entry): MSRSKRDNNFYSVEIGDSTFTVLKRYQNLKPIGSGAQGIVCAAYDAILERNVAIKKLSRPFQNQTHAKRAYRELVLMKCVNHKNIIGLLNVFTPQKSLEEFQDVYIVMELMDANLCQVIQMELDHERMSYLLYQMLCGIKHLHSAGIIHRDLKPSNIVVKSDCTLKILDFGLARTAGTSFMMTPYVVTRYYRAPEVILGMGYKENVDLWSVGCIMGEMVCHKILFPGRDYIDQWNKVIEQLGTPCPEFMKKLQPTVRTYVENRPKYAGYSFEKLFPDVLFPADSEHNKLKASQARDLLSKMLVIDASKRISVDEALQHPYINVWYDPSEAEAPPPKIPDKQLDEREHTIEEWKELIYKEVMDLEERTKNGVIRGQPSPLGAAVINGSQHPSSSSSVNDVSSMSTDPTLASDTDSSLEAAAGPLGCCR
T9 sequence (P49674 whole entry): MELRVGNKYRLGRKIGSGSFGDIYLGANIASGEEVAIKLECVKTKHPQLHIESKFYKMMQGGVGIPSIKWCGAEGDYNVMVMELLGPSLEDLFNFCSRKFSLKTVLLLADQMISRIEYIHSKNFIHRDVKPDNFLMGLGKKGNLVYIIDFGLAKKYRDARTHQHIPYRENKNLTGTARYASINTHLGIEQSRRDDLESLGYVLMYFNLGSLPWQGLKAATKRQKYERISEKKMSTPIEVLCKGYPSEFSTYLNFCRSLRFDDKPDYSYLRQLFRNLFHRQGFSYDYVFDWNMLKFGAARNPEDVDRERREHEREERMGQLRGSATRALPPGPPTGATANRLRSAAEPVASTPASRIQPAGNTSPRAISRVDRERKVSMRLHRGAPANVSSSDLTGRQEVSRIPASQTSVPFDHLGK
T6 sequence (P49760 whole entry): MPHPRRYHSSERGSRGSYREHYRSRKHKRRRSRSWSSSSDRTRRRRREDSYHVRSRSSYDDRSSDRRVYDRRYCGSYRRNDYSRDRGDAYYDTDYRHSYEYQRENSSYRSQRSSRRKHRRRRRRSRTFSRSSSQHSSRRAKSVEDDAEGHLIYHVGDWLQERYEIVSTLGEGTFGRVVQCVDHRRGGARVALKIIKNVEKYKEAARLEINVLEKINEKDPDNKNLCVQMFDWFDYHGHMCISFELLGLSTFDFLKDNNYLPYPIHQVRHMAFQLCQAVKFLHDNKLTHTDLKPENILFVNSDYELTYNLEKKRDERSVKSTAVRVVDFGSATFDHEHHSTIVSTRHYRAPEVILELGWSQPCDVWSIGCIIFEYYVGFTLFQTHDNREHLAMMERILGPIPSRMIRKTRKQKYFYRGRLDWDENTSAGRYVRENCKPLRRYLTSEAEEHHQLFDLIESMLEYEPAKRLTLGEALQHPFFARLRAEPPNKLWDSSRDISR
T5 sequence (P48730 whole entry): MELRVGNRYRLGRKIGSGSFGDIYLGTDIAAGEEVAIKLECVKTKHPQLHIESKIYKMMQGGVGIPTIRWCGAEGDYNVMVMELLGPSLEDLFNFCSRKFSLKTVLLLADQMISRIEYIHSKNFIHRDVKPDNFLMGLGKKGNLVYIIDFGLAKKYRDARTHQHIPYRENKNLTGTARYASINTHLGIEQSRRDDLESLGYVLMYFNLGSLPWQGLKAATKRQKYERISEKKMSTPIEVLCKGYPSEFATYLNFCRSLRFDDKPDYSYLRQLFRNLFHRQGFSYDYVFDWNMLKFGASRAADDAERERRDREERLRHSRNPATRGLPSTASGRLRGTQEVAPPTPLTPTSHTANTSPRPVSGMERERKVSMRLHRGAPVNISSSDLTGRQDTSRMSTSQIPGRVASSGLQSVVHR
T7 sequence (Q9HCP0 whole entry): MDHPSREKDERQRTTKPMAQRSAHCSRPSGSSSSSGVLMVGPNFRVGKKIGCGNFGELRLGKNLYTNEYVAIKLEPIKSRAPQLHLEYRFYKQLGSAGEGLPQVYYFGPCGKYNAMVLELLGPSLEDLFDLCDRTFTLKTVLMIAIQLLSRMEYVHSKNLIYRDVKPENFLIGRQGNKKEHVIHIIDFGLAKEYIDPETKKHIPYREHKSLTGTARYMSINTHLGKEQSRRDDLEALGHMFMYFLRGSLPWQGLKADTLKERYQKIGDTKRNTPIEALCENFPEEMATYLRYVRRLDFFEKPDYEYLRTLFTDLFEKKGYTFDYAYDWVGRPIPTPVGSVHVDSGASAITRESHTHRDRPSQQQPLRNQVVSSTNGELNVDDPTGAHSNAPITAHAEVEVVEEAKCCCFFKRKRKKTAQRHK

Row | SMILES | Kd (hVPS34) [nM] | Kd (JNK1 [2]) [nM] | Kd (JNK3 [3]) [nM] | Kd (MEK4) [nM] | solubility (Solubility) [µM] | half-life [4] [h] | half-life [7] [h] | IC50 (JNK1 [8]) [nM] | IC50 (JNK2 [9]) [nM] | Kd (JNK3 [5]; Table 3a, read-out: Kd JNK3) [nM] | Kd (JNK2 [6]; Table 3a, read-out: Kd JNK2) [nM] | IC50 (JNK3 [10]) [nM] | also measured
1 | Oc1c2ccccc2c2c3c(cccc13)N=N2 [SP600125, reference compound] | – | – | – | – | – | – | – | – | – | – | – | – | phosphorylation of JNK1 (P46) and JNK2 (P54) [1]: MEK4-dependent phosphorylation of JNK1 and JNK2; phosphorylation of Jun at pSer63 and pSer73 [1]: inhibits pSer63 and pSer73 Jun
2 | COc1ccc(NC(=O)c2cc3c(-c4cnc5[nH]ccc5c4)cccc3s2)cc1C(=O)N1CCCCC1 [CDD-2491, N-(4-methoxy-3-(piperidine-1-carbonyl)phenyl)-4-(1H-pyrrolo[2,3-b]pyridin-5-yl)benzo[b]thiophene-2-carboxamide] | 38000 | 0.28 | 1.41 | 60.2 | 2.5 (≈ 1.28 µg/mL) | 0.213 | 0.26 | – | – | – | – | – | Kd (CSNK1D): 8350 nM; Kd (CLK2): 1170 nM; Kd (JNK3 [5]): 1.41 ± 0.12 nM; Kd (CSNK1G1): 95000 nM; Kd (JNK2 [6]): 0.43 ± 0.09 nM
3 | CN(C)C(=O)c1cc(NC(=O)c2nc3c(-c4cnc5[nH]ccc5c4)cccc3s2)ccc1O [CDD-2856, N-(3-(dimethylcarbamoyl)-4-hydroxyphenyl)-4-(1H-pyrrolo[2,3-b]pyridin-5-yl)benzo[d]thiazole-2-carboxamide] | – | 0.27 ± 0.08 | – | – | 3.8 (≈ 1.74 µg/mL) | 3.75 | 0.925 | 1000 | 1100 | 1.03 ± 0.07 | 3.14 ± 0.33 | 2200 | phosphorylation of JNK1 (P46) and JNK2 (P54) [1]: inhibits the upstream phosphorylation of JNK1 and JNK2; phosphorylation of Jun at pSer63 and pSer73 [1]: inhibits phosphorylation more effectively than Tanzisertib
4 | CNCc1ccc(NC(=O)c2cc3c(-c4cnc5[nH]ccc5c4)cccc3s2)cc1 [CDD-2575, N-(4-((methylamino)methyl)phenyl)-4-(1H-pyrrolo[2,3-b]pyridin-5-yl)benzo[b]thiophene-2-carboxamide] | – | 1.15 ± 0.28 | – | – | 40.6 (≈ 16.7 µg/mL) | 6.81 | 1.95 | 2200 | 2300 | 2.76 ± 0.51 | 1.76 ± 0.15 | 4800 | effect on HepG2 cell viability / ATP consumption (HepG2 cells): non-specific decreases in cell viability were pronounced for CDD-2575 at 25 μM; also recorded: reduced ATP consumption
5 | CNCc1ccc(NC(=O)c2ccn3ncc(-c4cnc(N)nc4)c3c2)cc1 [CDD-2387, 3-(2-aminopyrimidin-5-yl)-N-(4-((methylamino)methyl)phenyl)pyrazolo[1,5-a]pyridine-5-carboxamide] | 130 | 2.96 ± 0.32 | 8.4 | 262 | 254 (≈ 94.8 µg/mL) | 2.04 | 2.01 | – | – | 8.44 ± 0.66 | 28.8 ± 1.8 | – | Kd (CSNK1E): 2660 nM; Kd (MEK5): 40700 nM
6 | CNCc1ccc(NC(=O)c2ccn3ncc(-c4cncc5ccccc45)c3c2)cc1 [CDD-2347, 3-(isoquinolin-4-yl)-N-(4-((methylamino)methyl)phenyl)pyrazolo[1,5-a]pyridine-5-carboxamide] | 776 | 0.39 ± 0.11 | 1.38 | 483 | 134 (≈ 54.7 µg/mL) | 0.505 | 0.552 | 2200 | 990 | 1.38 ± 0.21 | 1.7 ± 0.12 | 2000 | Kd (CSNK1E): 3180 nM
7 | CNC(=O)CN1[C@@H](CCNC(=O)OCc2ccccc2)CN(Cc2cccc3ccnn23)C[C@@H]1CC(=O)NCCCN(C)c1ccc(F)cc1 [CDD-2009, benzyl (2-((2S,6S)-6-(2-((3-((4-fluorophenyl)(methyl)amino)propyl)amino)-2-oxoethyl)-1-(2-(methylamino)-2-oxoethyl)-4-(pyrazolo[1,5-a]pyridin-7-ylmethyl)piperazin-2-yl)ethyl)carbamate] | – | – | – | – | – | – | – | – | – | – | – | – | JNK1 activity relative to CDD-1723 (fold less active) (JNK1 [11]): 20 fold
